From patent publication US20250122223A1, “HETEROCYCLIC COMPOUNDS AS UBIQUITIN SPECIFIC PROTEASE 7 INHIBITORS” (ALMAC DISCOVERY LIMITED, priority 2022, published 2025)
Read-outs that look alike come from different tables or passages of the source.

Molecular target: USP7 (Homo sapiens (Human), UniProt Q93009)
Test: USP7 fluorescence polarisation (FP) assay with ubiquitin-Lys-TAMRA substrate
Format: biochemical
Conditions: biochemical inhibition
Experimental: USP7 activity was monitored in a fluorescence polarisation (FP) homogeneous assay using the isopeptide ubiquitin-Lys-TAMRA substrate (U-558, Boston Biochem). Full-length USP7 was purchased from Boston Biochem (His6-USP7FL, E-519). Unless otherwise stated, all other reagents were purchased from Sigma-Aldrich. Enzymatic reactions were conducted in black flat-bottom low volume polystyrene 384-well plates (Grenier) and 15 μL total volume. USP7 (2.5 nM, 5 μL) was incubated in assay buffer (50 mM HEPES (pH 7.2), 150 mM NaCl, 5 mM DTT, 0.05% BSA (w/v), 0.05% CHAPS) in the presence or absence of inhibitor (5 μL). Inhibitors were stored as 10 mM DMSO stocks in an inert environment (low humidity, dark, low oxygen, room temperature) using a Storage Pod System and serial dilutions were prepared in buffer just prior to the assay (from 200 to 0.003 μM, 11 dp curve). Following incubation at room temperature for 30 min, the enzymatic reactions were initiated by dispensing the Ub substrate (50 nM, 5 μL). FP was measured every 5 min over a period of 1.5 h (within the linear range of the assay) using a Pherastar FSX (BMG Labtech) exciting at 530 nm and measuring the amount of parallel and perpendicular light at 575 nm. The FP signal was subsequently normalised to the control without compound present. Data were plotted and fitted, and the concentrations resulting in 50% inhibition (IC50) were calculated using the non-linear regression curve fitting model using GraphPad Prism.

[1] = read-out: USP7 IC50 activity (Table 3a, classes)
[2] = unit not given in Table 3b (Table 1 and key of Table 3a use μM), read-out: USP7 IC50 activity (Table 3b)

USP7, sequence (Q93009 whole entry): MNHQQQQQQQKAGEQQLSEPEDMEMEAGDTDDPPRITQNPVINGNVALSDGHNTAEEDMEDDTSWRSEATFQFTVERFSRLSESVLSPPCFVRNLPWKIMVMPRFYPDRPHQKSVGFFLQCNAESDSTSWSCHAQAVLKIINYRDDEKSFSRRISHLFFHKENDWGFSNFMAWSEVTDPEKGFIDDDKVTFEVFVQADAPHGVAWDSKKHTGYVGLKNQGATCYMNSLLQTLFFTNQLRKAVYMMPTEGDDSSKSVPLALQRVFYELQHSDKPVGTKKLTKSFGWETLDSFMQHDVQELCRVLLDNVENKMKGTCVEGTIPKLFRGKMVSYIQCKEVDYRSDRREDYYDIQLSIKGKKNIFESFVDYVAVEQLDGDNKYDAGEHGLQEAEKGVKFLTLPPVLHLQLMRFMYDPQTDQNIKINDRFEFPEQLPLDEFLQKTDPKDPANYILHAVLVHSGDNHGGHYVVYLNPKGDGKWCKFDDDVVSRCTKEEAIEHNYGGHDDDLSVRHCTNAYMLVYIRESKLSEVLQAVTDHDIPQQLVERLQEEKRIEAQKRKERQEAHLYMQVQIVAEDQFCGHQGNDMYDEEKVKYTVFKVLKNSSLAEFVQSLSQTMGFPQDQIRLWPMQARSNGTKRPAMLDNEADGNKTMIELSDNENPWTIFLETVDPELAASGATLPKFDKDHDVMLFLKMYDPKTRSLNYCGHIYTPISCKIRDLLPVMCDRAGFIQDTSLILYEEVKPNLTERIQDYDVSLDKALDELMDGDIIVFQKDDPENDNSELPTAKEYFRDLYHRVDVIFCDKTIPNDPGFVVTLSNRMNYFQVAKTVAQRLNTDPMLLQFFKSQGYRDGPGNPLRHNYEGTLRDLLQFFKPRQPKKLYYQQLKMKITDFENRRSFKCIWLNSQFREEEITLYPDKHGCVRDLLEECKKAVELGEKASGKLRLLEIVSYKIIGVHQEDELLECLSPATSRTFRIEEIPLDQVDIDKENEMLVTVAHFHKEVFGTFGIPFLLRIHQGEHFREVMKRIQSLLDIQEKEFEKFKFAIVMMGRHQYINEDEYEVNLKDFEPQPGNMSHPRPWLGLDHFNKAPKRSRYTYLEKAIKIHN

Row | SMILES | IC50 [1] | IC50 [2]
1 | O=C(C[C@H](c1ccccc1)C(F)(F)F)N1CCC(O)(Cn2cnc3c(cc(Cl)n3-c3ccc([C@H]4COCCN4)c(C(F)(F)F)c3)c2=O)CC1 (mixture of isomers) [Example 87, 6-Chloro-3-((4-hydroxy-1-((R)-4,4,4-trifluoro-3-phenylbutanoyl)piperidin-4-yl)methyl)-7-(4-((S)-morpholin-3-yl)-3-(trifluoromethyl)phenyl)-3,7-dihydro-4H-pyrrolo[2,3-d]pyrimidin-4-one and 6-chloro-3-((4-hydroxy-1-((R)-4,4,4-trifluoro-3-phenylbutanoyl)piperidin-4-yl)methyl)-7-(4-((R)-morpholin-3-yl)-3-(trifluoromethyl)phenyl)-3,7-dihydro-4H-pyrrolo[2,3-d]pyrimidin-4-one (1:1)] | 0.25 to 2 µM | 0.292 µM
2 | CC[C@H]1CN[C@H](c2ccc(-n3c(Cl)cc4c(=O)n(CC5(O)CCN(C(=O)c6ccc(Cl)cc6)CC5)cnc43)cc2)CO1 [Example 46, 6-Chloro-3-((1-(4-chlorobenzoyl)-4-hydroxypiperidin-4-yl)methyl)-7-(4-((3R,6S)-6-ethylmorpholin-3-yl)phenyl)-3,7-dihydro-4H-pyrrolo[2,3-d]pyrimidin-4-one] | 0.1 to 0.25 µM | 0.162 µM
3 | C[C@H]1CN[C@H](c2ccc(-n3c(Cl)cc4c(=O)n(CC5(O)CCN(C(=O)/C=C/c6ccccc6)CC5)cnc43)cc2)CO1 [Example 63, 6-Chloro-3-((1-cinnamoyl-4-hydroxypiperidin-4-yl)methyl)-7-(4-((3R,6S)-6-methylmorpholin-3-yl)phenyl)-3,7-dihydro-4H-pyrrolo[2,3-d]pyrimidin-4-one] | 0.1 to 0.25 µM | 0.221 µM
4 | Cc1cc(-n2c(Cl)cc3c(=O)n(CC4(O)CCN(C(=O)c5ccc(C6(C)CC6)cc5)CC4)cnc32)ccc1[C@H]1CO[C@H](C)CN1 [Example 94, 6-Chloro-3-((4-hydroxy-1-(4-(1-methylcyclopropyl)benzoyl)piperidin-4-yl)methyl)-7-(3-methyl-4-((3S,6R)-6-methylmorpholin-3-yl)phenyl)-3,7-dihydro-4H-pyrrolo[2,3-d]pyrimidin-4-one] | 0.1 to 0.25 µM | 0.193 µM
5 | C[C@H]1CN[C@H](c2ccc(-n3c(Cl)cc4c(=O)n(CC5(O)CCN(C(=O)c6ccc(F)c(F)c6)CC5)cnc43)cc2)CO1 [Example 37, 6-Chloro-3-((1-(3,4-difluorobenzoyl)-4-hydroxypiperidin-4-yl)methyl)-7-(4-((3R,6S)-6-methylmorpholin-3-yl)phenyl)-3,7-dihydro-4H-pyrrolo[2,3-d]pyrimidin-4-one] | 0.25 to 2 µM | 0.254 µM
6 | CC1(C(=O)N2CCC(O)(Cn3cnc4c(cc(Cl)n4-c4ccc(C5CNCCO5)cc4)c3=O)CC2)CC1 (stereo not drawn) [Example 88, 6-Chloro-3-((4-hydroxy-1-(1-methylcyclopropane-1-carbonyl)piperidin-4-yl)methyl)-7-(4-(morpholin-2-yl)phenyl)-3,7-dihydro-4H-pyrrolo[2,3-d]pyrimidin-4-one] | 0.1 to 0.25 µM | 0.158 µM
7 | O=C(c1ccc(Cl)cc1)N1CCC(O)(Cn2cnc3c(cc(Cl)n3-c3ccc([C@@H]4CO[C@@H](C5CC5)CN4)cc3)c2=O)CC1 (single isomer, unassigned) [Example 64] | 0.1 to 0.25 µM | 0.11 µM
8 | C[C@H]1CN[C@H](c2ccc(-n3c(Cl)cc4c(=O)n(CC5(O)CCN(C(=O)C(C6CC6)C6CC6)CC5)cnc43)cc2)CO1 [Example 99, 6-Chloro-3-((1-(2,2-dicyclopropylacetyl)-4-hydroxypiperidin-4-yl)methyl)-7-(4-((3R,6S)-6-methylmorpholin-3-yl)phenyl)-3,7-dihydro-4H-pyrrolo[2,3-d]pyrimidin-4-one] | 0.25 to 2 µM | 0.263 µM

The next lines start with the values.

Row | IC50 [1] | IC50 [2] | SMILES
9 | 0.1 to 0.25 µM | 0.121 µM | CC[C@H]1CN[C@H](c2ccc(-n3c(Cl)cc4c(=O)n(CC5(O)CCN(C(=O)C6(C)CC6)CC5)cnc43)cc2)CO1 [Example 106, 6-Chloro-7-(4-((3R,6S)-6-ethylmorpholin-3-yl)phenyl)-3-((4-hydroxy-1-(1-methylcyclopropane-1-carbonyl)piperidin-4-yl)methyl)-3,7-dihydro-4H-pyrrolo[2,3-d]pyrimidin-4-one]
10 | < 0.1 µM | 0.016 µM | O=C(C[C@H](c1ccccc1)C(F)(F)F)N1CCC(O)(Cn2cnc3c(cc(Cl)n3-c3ccc([C@H]4COCCN4)cc3)c2=O)CC1 (single isomer, unassigned) [Example 78]
11 | 0.1 to 0.25 µM | 0.111 µM | Cc1cc(-n2c(Cl)cc3c(=O)n(CC4(O)CCN(C(=O)c5ccc(C(F)F)cc5)CC4)cnc32)ccc1[C@H]1CO[C@H](C)CN1 [Example 92, 6-Chloro-3-((1-(4-(difluoromethyl)benzoyl)-4-hydroxypiperidin-4-yl)methyl)-7-(3-methyl-4-((3S,6R)-6-methylmorpholin-3-yl)phenyl)-3,7-dihydro-4H-pyrrolo[2,3-d]pyrimidin-4-one]
12 | 0.1 to 0.25 µM | – | Cc1ccc(C(=O)N2CCC(O)(Cn3cnc4c(cc(Cl)n4-c4ccc([C@H]5CO[C@H](C)CN5)c(C)c4)c3=O)CC2)cc1 [Example 55]
13 | 0.1 to 0.25 µM | 0.179 µM | Cc1cc(-n2c(Cl)cc3c(=O)n(CC4(O)CCN(C(=O)c5ccccc5Cl)CC4)cnc32)ccc1[C@H]1CO[C@H](C)CN1 [Example 52, 6-Chloro-3-((1-(2-chlorobenzoyl)-4-hydroxypiperidin-4-yl)methyl)-7-(3-methyl-4-((3S,6R)-6-methylmorpholin-3-yl)phenyl)-3,7-dihydro-4H-pyrrolo[2,3-d]pyrimidin-4-one]
14 | < 0.1 µM | 0.03 µM | C[C@H]1CN[C@H](c2ccc(-n3c(Cl)cc4c(=O)n(CC5(O)CCN(C(=O)C6(C)CC6)CC5)cnc43)cc2)CO1 (racemic) [Example 1, rac-6-Chloro-3-((4-hydroxy-1-(1-methylcyclopropane-1-carbonyl)piperidin-4-yl)methyl)-7-(4-((3R,6S)-6-methylmorpholin-3-yl)phenyl)-3,7-dihydro-4H-pyrrolo[2,3-d]pyrimidin-4-one]
15 | < 0.1 µM | 0.042 µM | C[C@@H]1CN[C@@H](c2ccc(-n3c(Cl)cc4c(=O)n(CC5(O)CCN(C(=O)[C@]6(C)C[C@H]6C(F)(F)F)CC5)cnc43)cc2)CO1 [Example 108, 6-Chloro-3-((4-hydroxy-1-((1R,2R)-1-methyl-2-(trifluoromethyl)cyclopropane-1-carbonyl)piperidin-4-yl)methyl)-7-(4-((3S,6R)-6-methylmorpholin-3-yl)phenyl)-3,7-dihydro-4H-pyrrolo[2,3-d]pyrimidin-4-one]
16 | < 0.1 µM | 0.017 µM | CC1(C)CN[C@@H](c2ccc(-n3c(Cl)cc4c(=O)n(CC5(O)CCN(C(=O)C[C@H](c6ccccc6)C(F)(F)F)CC5)cnc43)cc2)CO1 (mixture of isomers) [Example 10, 6-Chloro-7-(4-((S)-6,6-dimethylmorpholin-3-yl)phenyl)-3-((4-hydroxy-1-((R)-4,4,4-trifluoro-3-phenylbutanoyl)piperidin-4-yl)methyl)-3,7-dihydro-4H-pyrrolo[2,3-d]pyrimidin-4-one and 6-chloro-7-(4-((R)-6,6-dimethylmorpholin-3-yl)phenyl)-3-((4-hydroxy-1-((R)-4,4,4-trifluoro-3-phenylbutanoyl)piperidin-4-yl)methyl)-3,7-dihydro-4H-pyrrolo[2,3-d]pyrimidin-4-one]
17 | < 0.1 µM | 0.039 µM | O=C(N1CCC(O)(Cn2cnc3c(cc(Cl)n3-c3ccc([C@H]4COCCN4)cc3)c2=O)CC1)C1(C2CC2)CC1 (single isomer, unassigned) [Example 79]
